# Earlier results as cited in patent US10894072B2, “Compositions and methods for treating fibromyalgia” (Quality IP Holdings, LLC, priority 2017, dated 2021).
# Key:
# hGH = settings: for Increase in hGH: other amino acids
# [1] = subcutaneous injection of 0.06 IU, hGH deficient subjects
# fibromyalgia [2] = system: fibromyalgia
# fibromyalgia [3] = system: fibromyalgia; remark: listed apart in the source
# IGF-1 and IGF-BP3 = settings: patients with fibromyalgia, 4 days treatment
# [4] = hGH-deficient adults, within months of treatment
# fibromyalgia [5] = system: fibromyalgia; remark: listed apart in the source
compound,measurement,setting,value
N=C(N)NCCC[C@H](N)C(=O)O [arginine],Elevation of serum hGH levels,"hGH; 30 g, males",8.6 fold
same,Increase of hGH levels,"hGH; intravenous infusion of 183 mg/kg body weight, females",> 20 fold
N[C@@H](Cc1c[nH]cn1)C(=O)O [histidine],Increase in hGH,hGH,marked increases
NCCCC[C@H](N)C(=O)O [lysine],Increase in hGH,hGH,marked increases
CSCC[C@H](N)C(=O)O [methionine],Increase in hGH,hGH,marked increases
NCCC[C@H](N)C(=O)O [ornithine],Increase in hGH,hGH,marked increases
N[C@@H](Cc1ccccc1)C(=O)O [phenylalanine],Increase in hGH,hGH,marked increases
"hGH: human growth hormone, given by injection in cited studies",Mean levels of hGH reached,[1],0.4 ng/mL
same,Pain,"fibromyalgia [2]; hGH added to standard treatment, sustained action over time",effective in reducing pain
same,FIQ scores compared with placebo group,fibromyalgia [2]; low-dose hGH added to standard treatment,significantly improved
same,FIQ score and tender point score over the placebo group,fibromyalgia [3]; at nine months,significant improvement
same,IGF-1 levels,fibromyalgia [3]; daily hGH injections,prompt and sustained increase
same,Plasma IGF-1 and IGF-BP3 levels,IGF-1 and IGF-BP3,increase
same,"Lean body mass, skin thickness and muscle mass",[4],gains
same,Reduction in the mean number of tender points (pairs) compared to the control group,"fibromyalgia [5]; end of one-year study, subcutaneous hGH added to standard therapy",60%
same,Tolerability,"fibromyalgia [5]; human, in vivo",well tolerated
